# How the values were obtained:
# herpes simplex virus = assay: inhibition of herpes simplex virus multiplication in tissue culture (plaque formation technic of Rapp); assay type: cell-based; details: for IC50: read-out: Concentration required to exert 50% inhibition of herpes-induced plaque formation; for IC100: read-out: Concentration required to exert 100% inhibition of herpes-induced plaque formation
# light sensitivity = assay type: physicochemical
# [1] = test system: influenza A2 virus, Hong Kong strain; assay: microbe, parasite or virus in culture; assay type: cell-based
# influenza A2 /Hong Kong = assay: suppression of influenza A2/Hong Kong disease in mice (lung weight); assay type: in vivo; details: 40 mg/Kg orally from 24 h post-infection; 8 days; from lung weights; 50% of drug blocked at 1,2- with acetone
# influenza A/PR/8 = assay: prevention of death in mice with lethal influenza A/PR/8 infection; assay type: in vivo; details: for % of Population Protected / % Mortality: 8 days; for % Mortality: control 95
# Procedure: The above medication was also examined for its capacity to prevent death in mice ill with a lethal influenza A/PR/8 infection. The drug was given subcutaneously at 3 dose levels, once 90 minutes before infection.
# [2] = 10 mg/Kg s.c. once 90 min before infection
# [3] = 40 mg/Kg s.c. once 90 min before infection
# [4] = 160 mg/Kg s.c. once 90 min before infection
Compound,IC50 (herpes simplex virus) [µg/mL],IC100 (herpes simplex virus) [µg/mL],further results
"CC(CO[C@H]1[C@H](O)[C@@H](CO)OC(O)[C@@H]1O)CN(C)C (stereo partly drawn) [3-O-3'-(2',N',N'-trimethylamino-n-propyl)-D-glucopyranose]",2,7,
"CCN(CC)CCO[C@H]1[C@H](O)[C@@H](CO)OC(O)[C@@H]1O (stereo partly drawn) [3-O-2'-(N',N'-diethylaminoethyl)-D-glucopyranose]",2,20,
"CCN(CC)CCOC1C(C2COC(C)(C)O2)OC2OC(C)(C)OC21 [1,2:5,6-di-O-isopropylidene-3-O-2'-(N',N'-diethylaminoethyl)-D-glucofuranose]",6,30,
"CN1CCC(O[C@H]2[C@H](O)[C@@H](CO)OC(O)[C@@H]2O)CC1 (stereo partly drawn) [3-O-4'-(N-methylpiperidyl)-D-glucose, 3-O-4'-(N-methylpiperidyl)-D-glucopyranose]",0.7,6,
CC1(C)OCC(C2OC3OC(C)(C)OC3C2OCCC#N)O1 [di-O-isopropylidene-3-O-3'-propionitrile-D-glucofuranose],,,light sensitivity (light sensitivity): light sensitive
"CC(CN(C)C)O[C@H]1O[C@H](CO)[C@@H](O)[C@H](O)[C@H]1O (stereo partly drawn) [α-N,N-dimethylaminoisopropyl glucoside, α-N,N-dimethylaminoisopropyl-D-glucoside]",10,> 50,"log reduction at 3 µg/mL ([1]; 3 μg/ml, 100 TCD50 inoculum, BHK cells, 4.0 is maximum, read-out: Log Decrease in Infectivity of Virus Inoculum): 1.5; log reduction at 10 µg/mL ([1]; 10 μg/ml, 100 TCD50 inoculum, BHK cells, 4.0 is maximum (complete suppression), read-out: Log Decrease in Infectivity of Virus Inoculum): 2.5"
"NCCCO[C@H]1[C@H](O)[C@@H](CO)OC(O)[C@@H]1O (stereo partly drawn) [3-O-3'-n-propylamino-D-glucose, 3-O-3'-(n-propylamino)-D-glucopyranose]",3,> 20,
"CN(C)CCCO[C@H]1[C@H](O)[C@@H](CO)OC(O)[C@@H]1O (stereo partly drawn) [3-O-3'-(N',N'-dimethylamino-n-propyl)-D-glucopyranose]",0.3,1,"% Disease Suppression (influenza A2 /Hong Kong): 82%; anti-herpes potency (herpes simplex virus; relative to other derivatives of Table 2): the most potent derivative; % of Population Protected (influenza A/PR/8; [2]): 14%; % Mortality (influenza A/PR/8; [2]): 81%; % of Population Protected (influenza A/PR/8; [3]): 23%; % Mortality (influenza A/PR/8; [3]): 72%; % of Population Protected (influenza A/PR/8; [4]): 50%; % Mortality (influenza A/PR/8; [4]): 45%; protection against death (influenza A/PR/8; 3 s.c. dose levels, once 90 minutes before infection): significant dose-dependent protection against death; potency of virus-inhibiting effect [1]: the most potent effect"
"CC(CN(C)C)O[C@H]1[C@H](O)[C@@H](CO)OC(O)[C@@H]1O (stereo partly drawn) [3-O-2'-(N',N'-dimethylaminopropyl)-D-glucopyranose]",,,"Concentration required to exert 50% inhibition of herpes-induced plaque formation (herpes simplex virus; herpes simplex, tissue culture): 3 µg/mL; Concentration required to exert 100% inhibition of herpes-induced plaque formation (herpes simplex virus; herpes simplex, tissue culture): < 20 µg/mL"
3-O-D-glucopropionitrile,,,light sensitivity (light sensitivity): photosensitive
"CN(C)CCCOC[C@H]1OC(O)[C@H](O)[C@@H](O)[C@H]1O (stereo partly drawn) [6-O-3'-(N',N'-dimethylamino-n-propyl)-D-galactopyranose]",2,> 10,

# From patent USRE30354E, “Novel ethereally monosubstituted monosaccharides” (Strategic Medical Research Corp., priority 1978, dated 1980)
